The subject of this experiment is GABAA receptor. Put plainly: whole-cell voltage-clamp, dose-response, blocked by gabazine. Details: species or system Mus musculus.

In general, EC50 refers to the concentration that produces a half-maximal response. With `[H]/N=C(/N)NCC(=O)O` [GAA, guanidinoacetate], the EC50 stood at 134 µM.

Values taken from paper PMC13596996 (Cell, 2026).
